Values of other authors in patent publication US9795689B2, “Crosslinked polymer nano-assemblies and uses thereof” (University of Massachusetts, priority 2012, dated 2017).

pKa of the protonated form of the amine: around 6.2
SMILES: C=C(C)C(=O)OCCN(C(C)C)C(C)C [DPA, 2-(diisopropylamino)ethyl methacrylate]
